In ChEMBL document CHEMBL1201862, “PubChem BioAssay data set” (2004):
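A five-concentration, 48-hour dose response in 96-well plates underlies each endpoint, interpolated linearly between surrounding concentrations. GI50: concentration for 50% inhibition of growth.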 Active and inactive are the calls of the source. No stated cut-off is given here; in the data, active = GI50 up to about 1.1 µM and inactive = higher.

Tests used:
Test in all cases: NCI tumour cell line growth inhibition, 48 h
[1] = test system: U-251
[2] = test system: HT-29
[3] = test system: CAKI-1
[4] = test system: SK-MEL-5
[5] = test system: RXF 393
[6] = test system: IGROV-1
[7] = test system: COLO 205
[8] = test system: TK-10
[9] = test system: KM12
[10] = test system: SK-MEL-2
[11] = test system: SW-620
[12] = test system: SK-OV-3
[13] = test system: PC-3
[14] = test system: MOLT-4
[15] = test system: RPMI-8226
[16] = test system: MDA-MB-435
[17] = test system: K562
[18] = test system: SF-268
[19] = test system: M14

Measured: GI50

c1ccc(/N=C2\SC(=NNc3ccccc3)S\C2=N/c2ccccc2)cc1
inactive: [1] 38.1 µM | [2] 45.4 µM | [3] > 100 µM | [4] 44.9 µM | [5] 7.66 µM | [6] 54.2 µM | [7] 28.7 µM | [8] > 100 µM | [9] 6.12 µM | [10] 8.18 µM | [11] > 100 µM | [12] > 100 µM | [13] 19.5 µM | [14] > 100 µM | [15] > 100 µM | [16] 35.6 µM | [17] > 100 µM | [18] > 100 µM

CCOP(=O)(COCCn1ncc(=O)[nH]c1=O)OCC
inactive: [1] > 100 µM | [2] > 100 µM | [3] > 100 µM | [4] > 100 µM | [5] > 100 µM | [6] > 100 µM | [7] > 100 µM | [8] > 100 µM | [9] > 100 µM | [10] > 100 µM | [11] > 100 µM | [13] > 100 µM | [14] > 100 µM | [15] > 100 µM | [16] > 100 µM | [19] > 100 µM | [18] > 100 µM

O=c1cnn(C/C=C/CBr)c(=O)[nH]1
inactive: [1] 15 µM | [2] 13.8 µM | [3] 12.9 µM | [4] 13.1 µM | [5] 15.5 µM | [6] 16.2 µM | [7] 18.8 µM | [9] 17.5 µM | [10] 17.1 µM | [11] 13.6 µM | [13] 14.9 µM | [14] 19.6 µM | [15] 5.48 µM | [16] 14.9 µM | [17] 21.4 µM | [19] 15.3 µM | [18] 17.1 µM

COC(=O)[C@@H]1C[C@@H]2c3ccccc3N(S(=O)(=O)c3ccccc3)[C@@H]2N1C(=O)OC
inactive: [1] > 100 µM | [2] > 100 µM | [3] > 100 µM | [4] > 100 µM | [5] > 100 µM | [6] > 100 µM | [7] > 100 µM | [8] > 100 µM | [9] > 100 µM | [10] > 100 µM | [11] > 100 µM | [12] > 100 µM | [13] > 100 µM | [14] > 100 µM | [15] > 100 µM | [16] > 100 µM | [17] > 100 µM | [18] > 100 µM

CSc1nc(NC2CCCC2)c2cc[nH]c2n1
inactive: [1] 36.4 µM | [2] 37.1 µM | [3] > 100 µM | [4] 35.2 µM | [5] > 100 µM | [6] 98.2 µM | [7] 48.4 µM | [8] 72.6 µM | [9] 54.6 µM | [11] > 100 µM | [12] > 100 µM | [13] 43.5 µM | [14] 42.4 µM | [15] 33.6 µM | [16] 59.2 µM | [17] 32.9 µM | [19] 65 µM | [18] 68.7 µM

CSc1c(C#N)c2n(c3ccccc3[n+]2C)c2ncccc12
inactive: [1] 24 µM | [2] 26.7 µM | [3] 21 µM | [4] 12.9 µM | [5] 17.9 µM | [6] 24.7 µM | [7] 13.8 µM | [9] 22 µM | [10] 20.1 µM | [11] 20.2 µM | [12] 36.1 µM | [13] 19.1 µM | [14] 92.5 µM | [15] 25.4 µM | [16] 32 µM | [17] 37.9 µM | [19] 21.2 µM | [18] 29.4 µM

COC(=O)C1(C)CCCC2(C)C3CCC4CC3(C=C4CO)CCC12 (stereo not drawn)
inactive: [1] 57.4 µM | [2] 16.2 µM | [3] 43.8 µM | [4] 37.2 µM | [5] 56.4 µM | [6] > 100 µM | [7] 74.8 µM | [8] 91.6 µM | [10] 82.4 µM | [11] 69.2 µM | [12] > 100 µM | [13] 33.1 µM | [14] 27.8 µM | [15] 24.9 µM | [16] 83.2 µM | [19] 93.8 µM | [18] 37.8 µM

Nc1ncc2c(n1)-c1ccccc1OC2NC1CC1 (stereo not drawn)
inactive: [1] > 100 µM | [2] > 100 µM | [3] > 100 µM | [4] > 100 µM | [5] > 100 µM | [6] > 100 µM | [7] > 100 µM | [8] > 100 µM | [9] > 100 µM | [10] > 100 µM | [11] > 100 µM | [12] > 100 µM | [13] > 100 µM | [14] > 100 µM | [15] > 100 µM | [16] > 100 µM | [19] > 100 µM | [18] > 100 µM

CC1=CCC[C@]2(C)C1=CC(=O)O[C@H]2c1ccoc1
inactive: [1] > 100 µM | [2] > 100 µM | [3] > 100 µM | [4] > 100 µM | [5] > 100 µM | [6] > 100 µM | [7] > 100 µM | [8] > 100 µM | [9] > 100 µM | [10] > 100 µM | [11] > 100 µM | [12] > 100 µM | [13] > 100 µM | [14] > 100 µM | [15] > 100 µM | [16] > 100 µM | [17] > 100 µM | [18] > 100 µM

N#Cc1cc2c(n(C3OC(CO)C(O)C(O)C3O)c1=S)CCC2 (stereo not drawn)
inactive: [1] > 100 µM | [2] > 100 µM | [3] > 100 µM | [4] > 100 µM | [5] > 100 µM | [6] > 100 µM | [7] > 100 µM | [8] > 100 µM | [9] > 100 µM | [10] > 100 µM | [13] > 100 µM | [14] > 100 µM | [15] > 100 µM | [16] > 100 µM | [17] > 100 µM | [19] > 100 µM | [18] > 100 µM

S=C(S)N1CCN(c2ccc(Cl)c(Cl)c2)CC1
inactive: [1] 26.3 µM | [2] 20.8 µM | [3] 27.5 µM | [4] 16.1 µM | [5] 56.9 µM | [6] 28.7 µM | [7] 18.2 µM | [8] 58.6 µM | [9] 16.3 µM | [10] 17 µM | [11] 21.7 µM | [13] 19.6 µM | [15] 19.5 µM | [16] 17.6 µM | [17] 19.3 µM | [19] 19.7 µM | [18] 31.8 µM
